Patent US11161839B2, “2-quinolone derived inhibitors of BCL6” (Cancer Research Technology Limited, priority 2017, dated 2021)

Molecular target: human BCL6 BTB domain (Trx-6xHis-BCL6) (Homo sapiens (Human), UniProt P41182)
Assay: HTRF in vitro assay (BCL6 BTB domain / BCOR-AF633 peptide)
Assay type: binding
[1] = further generated data (Table 1b), 1 nM Trx-6xHis-BCL6, 0.5 nM anti-6xHis-Terbium cryptate
[2] = initially generated data (Table 1a), 10 nM Trx-6xHis-BCL6, 1 nM anti-6xHis-Terbium cryptate

| HTRF pIC50 [1] | HTRF pIC50 [2] | IC50 (further generated data (Table 1b), 1 nM Trx-6xHis-BCL6, 0.5 nM anti-6xHis-Terbium cryptate, read-out: HTRF pIC50 (converted)) [nM] | SMILES |
| --- | --- | --- | --- |
| 6.21 |  |  | C[C@@H](Nc1cc(=O)n(C)c2ncc(Nc3ccnc(Cl)c3Cl)cc12)C1CC1 [Example 6f, (R)-4-((1-cyclopropylethyl)amino)-6-((2,3-dichloropyridin-4-yl)amino)-1-methyl-1,8-naphthyridin-2(1H)-one] |
| 6.61 | 6.62 |  | C[C@@H](Nc1cc(=O)n(C)c2ccc(Nc3ccnc(Cl)c3C#N)cc12)C(=O)NC1CCCC1 [Example 3d, (R)-2-((6-((2-Chloro-3-cyanopyridin-4-yl)amino)-1-methyl-2-oxo-1,2-dihydroquinolin-4-yl)amino)-N-cyclopentylpropanamide] |
| 6.42 | 6.59 |  | COCCNC(=O)[C@@H](C)Nc1cc(=O)n(C)c2ccc(Nc3ccnc(Cl)c3C#N)cc12 [Example 3e, (R)-2-((6-((2-chloro-3-cyanopyridin-4-yl)amino)-1-methyl-2-oxo-1,2-dihydroquinolin-4-yl)amino)-N-(2-methoxyethyl)propanamide] |
| 6.17 |  |  | CC(Nc1cc(=O)n(CC2CCCCC2)c2ccc(Nc3ccnc(Cl)c3C#N)cc12)c1ncccn1 (stereo not shown) [Example 10v, 2-chloro-4-((1-(cyclohexylmethyl)-2-oxo-4-((1-(pyrimidin-2-yl)ethyl)amino)-1,2-dihydroquinolin-6-yl)amino)nicotinonitrile] |
| 6.22 |  |  | CC(Nc1cc(=O)n(C)c2ccc(Nc3ncnc(Cl)c3C#N)cc12)c1ncccn1 (stereo not shown) [Example 10t, 4-chloro-6-((1-methyl-2-oxo-4-((1-(pyrimidin-2-yl)ethyl)amino)-1,2-dihydroquinolin-6-yl)amino)pyrimidine-5-carbonitrile] |
| 6.57 | 6.73 |  | C[C@@H](Nc1cc(=O)n(C)c2ccc(Nc3ccnc(Cl)c3C#N)cc12)C(=O)NCCO [Example 3b, (R)-2-((6-((2-chloro-3-cyanopyridin-4-yl)amino)-1-methyl-2-oxo-1,2-dihydroquinolin-4-yl)amino)-N-(2-hydroxyethyl)propanamide] |
| 6.77 |  |  | C#CC1(Nc2cc(=O)n(C)c3ccc(Nc4cc(C(=O)O)nc(Cl)c4C#N)cc23)CC1 [Example 9h, 6-chloro-5-cyano-4-((4-((1-ethynylcyclopropyl)amino)-1-methyl-2-oxo-1,2-dihydroquinolin-6-yl)amino)picolinic acid] |
| 7.13 |  |  | C[C@@H](Nc1cc(=O)n(C)c2ccc(Nc3cc(C(=O)O)nc(Cl)c3C#N)cc12)C1CC1 [Example 9b, (R)-6-chloro-5-cyano-4-((4-((1-cyclopropylethyl)amino)-1-methyl-2-oxo-1,2-dihydroquinolin-6-yl)amino)picolinic acid] |
| 7.82 |  |  | Cn1c(=O)cc(NC(C)(C)c2ncccn2)c2cc(Nc3cc(C(=O)N4CC5(CCO5)C4)nc(Cl)c3C#N)ccc21 [Example 8g, 2-chloro-4-((1-methyl-2-oxo-4-((2-(pyrimidin-2-yl)propan-2-yl)amino)-1,2-dihydroquinolin-6-yl)amino)-6-(1-oxa-6-azaspiro[3.3]heptane-6-carbonyl)nicotinonitrile] |
| 6.54 |  |  | C[C@@H]1C[C@H](C)CN(c2ncc(Cl)c(Nc3ccc4c(c3)c(NC(C)(C)c3ncccn3)nc(=O)n4C)n2)C1 [Example 26g, 6-[[5-chloro-2-[(3R,5S)-3,5-dimethyl-1-piperidyl]pyrimidin-4-yl]amino-1-methyl-4-[(1-methyl-1-pyrimidin-2-yl)ethyl)amino]quinazolin-2-one:formic acid (1:1)] |
| 7.05 |  |  | Cn1c(=O)cc(NC2(C#N)CC2)c2cc(Nc3cc(C(=O)O)nc(Cl)c3C#N)ccc21 [Example 9g, 6-chloro-5-cyano-4-((4-((1-cyanocyclopropyl)amino)-1-methyl-2-oxo-1,2-dihydroquinolin-6-yl)amino)picolinic acid] |
| 6.56 |  |  | Cn1c(=O)cc(NCC2CC2)c2cc(Nc3cc(C(=O)O)nc(Cl)c3C#N)ccc21 [Example 9l, 6-chloro-5-cyano-4-((4-((cyclopropylmethyl)amino)-1-methyl-2-oxo-1,2-dihydroquinolin-6-yl)amino)picolinic acid] |
| 6.36 |  |  | Cc1nc(N2CCC(C(=O)N(C)C)CC2)nc(Nc2ccc3c(c2)c(NC(C)(C)c2ncccn2)cc(=O)n3C)c1Cl [Example 16c, 1-(5-chloro-4-methyl-6-((1-methyl-2-oxo-4((2-(pyrimidin-2-yl)propan-2-yl)amino)-1,2-dihydroquinolin-6-yl)amino)pyrimidin-2-yl)-N,N-dimethylpiperidine-4-carboxamide] |
| 6.71 | 6.48 |  | C#CCCNC(=O)[C@@H](C)Nc1cc(=O)n(C)c2ccc(Nc3ccnc(Cl)c3C#N)cc12 [Example 3f, (R)-N-(But-3-yn-1-yl)-2-((6-((2-chloro-3-cyanopyridin-4-yl)amino)-1-methyl-2-oxo-1,2-dihydroquinolin-4-yl)amino)propanamide] |
|  |  | 575 | COC1CCC1Nc1cc(=O)n(C)c2ccc(Nc3ccnc(Cl)c3C#N)cc12 (racemic) [Example 22b, rac-2-chloro-4-((4-(((1R,2S)-2-methoxycyclobutyl)amino)-1-methyl-2-oxo-1,2-dihydroquinolin-6-yl)amino)nicotinonitrile or rac-2-chloro-4-((4-(((1R,2R)-2-methoxycyclobutyl)amino)-1-methyl-2-oxo-1,2-dihydroquinolin-6-yl)amino)nicotinonitrile] |
| 6.66 |  |  | CCC(C)(C)Nc1cc(=O)n(C)c2ccc(Nc3cc(C(=O)O)nc(Cl)c3C#N)cc12 [Example 9o, 6-chloro-5-cyano-4-((1-methyl-2-oxo-4-(tert-pentylamino)-1,2-dihydroquinolin-6-yl)amino)picolinic acid] |
| 6.50 | 6.65 |  | Cc1n[nH]c(C(C)Nc2cc(=O)n(C)c3ccc(Nc4ccnc(Cl)c4C#N)cc23)n1 (stereo not shown) [Example 3c, 2-Chloro-4-((1-methyl-4-((1-(3-methyl-1H-1,2,4-triazol-5-yl)ethyl)amino)-2-oxo-1,2-dihydroquinolin-6-yl)amino)nicotinonitrile] |
| 6.49 |  |  | Cn1c(=O)cc(NC2CC2(C)C)c2cc(Nc3cc(C(=O)O)nc(Cl)c3C#N)ccc21 (stereo not shown) [Example 9j, 6-chloro-5-cyano-4-((4-((2,2-dimethylcyclopropyl)amino)-1-methyl-2-oxo-1,2-dihydroquinolin-6-yl)amino)picolinic acid] |

Continued, compound first:

| SMILES | HTRF pIC50 [1] | HTRF pIC50 [2] | IC50 (further generated data (Table 1b), 1 nM Trx-6xHis-BCL6, 0.5 nM anti-6xHis-Terbium cryptate, read-out: HTRF pIC50 (converted)) [nM] |
| --- | --- | --- | --- |
| CC(Nc1cc(=O)n(C)c2ccc(Nc3ccnc(Cl)c3C#N)cc12)c1nc[nH]n1 (stereo not shown) [Example 1e, 2-chloro-4-[[1-methyl-2-oxo-4-[1-(1H-1,2,4-triazol-3-yl)ethylamino]-6-quinolyl]amino]pyridine-3-carbonitrile] | 6.08 | 6.50 |  |
| Cn1c(=O)cc(NC2(C)CC2)c2cc(Nc3cc(C(=O)O)nc(Cl)c3C#N)ccc21 [Example 2c, 6-chloro-5-cyano-4-[[1-methyl-4-[(1-methylcyclopropyl)amino]-2-oxo-6-quinolyl]amino]pyridine-2-carboxylic acid] | 6.38 | 6.36 |  |
| C[C@@H]1CN(c2ncc(Cl)c(Nc3ccc4c(c3)c(N[C@H](C)C3CC3)cc(=O)n4C)n2)C[C@H](C)O1 [Example 17d, 6-((5-chloro-2-((2S,6R)-2,6-dimethylmorpholino)pyrimidin-4-yl)amino)-4-(((R)-1-cyclopropylethyl)amino)-1-methylquinolin-2(1H)-one:formic acid (1:1)] | 6.19 |  |  |
| CC(Nc1cc(=O)n(C)c2ccc(Nc3cc(C(=O)O)nc(Cl)c3C#N)cc12)C1CC1 (stereo not shown) [Example 2a, 6-Chloro-5-cyano-4-[[4-(1-cyclopropylethylamino)-1-methyl-2-oxo-6-quinolyl]amino]pyridine-2-carboxylic acid] | 6.85 | 6.78 |  |
| Cn1c(=O)cc(NCCF)c2cc(Nc3cc(C(=O)O)nc(Cl)c3C#N)ccc21 [Example 9c, 6-chloro-5-cyano-4-((4-((2-fluoroethyl)amino)-1-methyl-2-oxo-1,2-dihydroquinolin-6-yl)amino)picolinic acid] | 6.05 |  |  |
| CC(Nc1cc(=O)n(C)c2ccc(Nc3ccnc(Cl)c3C#N)cc12)c1cc[nH]n1 (stereo not shown) [Example 1t, 2-chloro-4-[[1-methyl-2-oxo-4-[1-(1H-pyrazol-3-yl)ethylamino]-6-quinolyl]amino]pyridine-3-carbonitrile] | 5.84 | 6.00 |  |
| Cc1ccnc(C(C)Nc2cc(=O)n(C)c3ccc(Nc4ccnc(Cl)c4C#N)cc23)n1 (stereo not shown) [Example 1i, 2-chloro-4-[[1-methyl-4-[1-(4-methylpyrimidin-2-yl)ethylamino]-2-oxo-6-quinolyl]amino]pyridine-3-carbonitrile] | 6.26 | 6.31 |  |
| CC(Nc1cc(=O)n(C)c2ccc(Nc3ccnc(Cl)c3C#N)cc12)c1nccs1 (stereo not shown) [Example 1s, 2-chloro-4-[[1-methyl-2-oxo-4-(1-thiazol-2-ylethylamino)-6-quinolyl]amino]pyridine-3-carbonitrile] | 6.07 | 6.03 |  |
| CCNc1cc(=O)n(CCN2C(=O)CCC2=O)c2ccc(Nc3ccnc(Cl)c3C#N)cc12 [Example 1r, 2-chloro-4-[[1-[2-(2,5-dioxopyrrolidin-1-yl)ethyl]-4-(ethylamino)-2-oxo-6-quinolyl]amino]pyridine-3-carbonitrile] | 6.25 | 6.05 |  |
| Cn1c(=O)cc(NC2(C)CCCC2)c2cc(Nc3cc(C(=O)O)nc(Cl)c3C#N)ccc21 [Example 2d, 6-chloro-5-cyano-4-[[1-methyl-4-[(1-methylcyclopentyl)amino]-2-oxo-6-quinolyl]amino]pyridine-2-carboxylic acid] | 6.65 | 6.51 |  |
| CC(CO)Nc1nc(=O)n(C)c2ccc(Nc3ccnc(Cl)c3C#N)cc12 (stereo not shown) [Example 1l, 2-chloro-4-[[4-[(2-hydroxy-1-methyl-ethyl)amino]-1-methyl-2-oxo-quinazolin-6-yl]amino]pyridine-3-carbonitrile] | 5.98 | 6.18 |  |
